Measurements reported in publication PMC11940309, “Endocrine-Disrupting Activities of Flavones on Steroid Receptors: Structural Requirements and Synthesis of Novel Flavone with Improved Estrogenic Activity” (Biomedicines, 2025).
Where two headings read alike, the source gives them in different places.

Molecular target: T1, glucocorticoid receptor (GR) (Rattus norvegicus, UniProt P06536)
T1 construct: host or cells: T47D (A1-2)
T1 sequence (P06536 1-795): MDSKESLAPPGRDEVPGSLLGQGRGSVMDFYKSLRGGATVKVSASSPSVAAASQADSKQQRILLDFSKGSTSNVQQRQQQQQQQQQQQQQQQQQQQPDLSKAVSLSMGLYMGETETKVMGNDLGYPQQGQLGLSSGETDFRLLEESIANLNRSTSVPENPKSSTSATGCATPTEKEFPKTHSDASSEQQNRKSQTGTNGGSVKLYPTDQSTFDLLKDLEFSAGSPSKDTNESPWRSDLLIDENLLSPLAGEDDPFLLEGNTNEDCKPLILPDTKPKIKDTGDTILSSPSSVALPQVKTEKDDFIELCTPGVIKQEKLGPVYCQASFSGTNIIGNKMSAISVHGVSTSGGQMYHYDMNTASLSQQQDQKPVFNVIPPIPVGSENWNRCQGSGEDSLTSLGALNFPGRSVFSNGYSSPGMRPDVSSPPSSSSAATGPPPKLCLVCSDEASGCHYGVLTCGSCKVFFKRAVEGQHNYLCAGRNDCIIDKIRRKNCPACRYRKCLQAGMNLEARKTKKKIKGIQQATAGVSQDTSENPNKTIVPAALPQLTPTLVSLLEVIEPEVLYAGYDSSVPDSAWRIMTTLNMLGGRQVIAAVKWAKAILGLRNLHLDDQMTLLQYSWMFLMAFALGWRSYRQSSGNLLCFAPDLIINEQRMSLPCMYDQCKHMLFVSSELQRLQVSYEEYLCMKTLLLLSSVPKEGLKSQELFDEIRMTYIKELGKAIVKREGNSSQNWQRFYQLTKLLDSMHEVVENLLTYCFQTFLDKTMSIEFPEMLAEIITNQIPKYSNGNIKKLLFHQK
Test: GR-mediated induction of transcription by dexamethasone in T47D (A1-2) cells (luciferase reporter and endogenous alkaline phosphatase)
Format: cell-based, human
Details: dexamethasone 1.0 nM; for inhibition at 4 µM / inhibition at 8 µM: T47D
Source text: The engineered T47D breast cancer cell lines employed for the assessment of flavonoid activity on glucocorticoid receptor (GR) and progesterone receptor (PR) signaling permitted the facile quantitation transcription of both an endogenous gene and a stably integrated reporter gene. […] The T47D K5pLuc cell line responds to progestins via induction of a stably integrated cytokeratin 5-luciferase reporter gene. […] For assessment of the effect of the test compounds on androgen receptor (AR) signaling, we used the HeLa13 cell line engineered to stably express human AR and a PSA-luciferase reporter gene containing a 4× multimerized PSA upstream enhancer ARE1 linked to the E4 TATA box and luciferase gene.
For assessment of the effect of flavones on glucocorticoid receptors, T47D (A1-2) cells were maintained in Minimal Essential Medium, 10% Fetal Bovine Serum (FBS), 0.2 mg/mL G418, penicillin (100 U/mL), and streptomycin (100 μg/mL). For experiments, medium was removed, and cultures rinsed with Phosphate-Buffered Saline (PBS) + 1.0 mM EDTA (PBSE), detached with trypsin, pelleted, and resuspended in medium to a concentration of 500,000 cells/mL. Aliquots of cell suspension, 100 microliters/well, were transferred into a 96-well, white, flat-bottomed plate and allowed to attach for 24 h. The following day, each well was treated with a 50 microliter aliquot of a test compound diluted in medium. Controls received medium containing DMSO diluted in the same way. For hormone treatment, dexamethasone was diluted in medium and added as 50 microliter aliquots so that the final volume in each well was 200 microliters. The final concentration of dexamethasone was 1.0 nM. Controls received medium without hormone. Hormone treatment was for 20 h at which time cells were harvested for assay of alkaline phosphatase and luciferase.
For all cell lines, cell harvesting and the luminescence assay for alkaline phosphatase and/or luciferase were performed as previously described in detail. Each condition was performed in quadruplicate. […] Percent inhibition is 100 minus the percent induction.

[1] = 4 µM, AP (alkaline phosphatase), read-out: % Inhibition of GR Induction
[2] = 4 µM, LUC (luciferase), read-out: % Inhibition of GR Induction
[3] = 8 µM, AP (alkaline phosphatase), read-out: % Inhibition of GR Induction
[4] = 8 µM, LUC (luciferase), read-out: % Inhibition of GR Induction
[5] = read-out: % Inhibition of GR Induction, 4 µM, AP (alkaline phosphatase)
[6] = read-out: % Inhibition of GR Induction, 4 µM, LUC (luciferase)
[7] = read-out: % Inhibition of GR Induction, 8 µM, AP (alkaline phosphatase)
[8] = read-out: % Inhibition of GR Induction, 8 µM, LUC (luciferase)

Compound | inhibition at 4 µM [1] | inhibition at 4 µM [2] | inhibition at 8 µM [3] | inhibition at 8 µM [4] | other results
O=c1cc(-c2ccc(O)cc2)oc2cc(O)ccc12 [7,4′-dihydroxyflavone] | – | – | – | – | inhibition at 4 µM [5]: 47%; inhibition at 4 µM [6]: -92%; inhibition at 8 µM [7]: 64%; inhibition at 8 µM [8]: -38%
O=c1cc(-c2ccc(O)cc2)oc2cccc(O)c12 [5,4′-dihydroxyflavone] | 34% | 13% | 33% | 13% | –
O=c1cc(-c2cc(O)c(O)c(O)c2)oc2cc(O)cc(O)c12 [5,7,3′4′,5′-pentahydroxyflavone] | – | – | – | – | % Inhibition of GR Induction (4 µM, AP (alkaline phosphatase)): −19%; % Inhibition of GR Induction (4 µM, LUC (luciferase)): 5%; % Inhibition of GR Induction (8 µM, AP (alkaline phosphatase)): 46%; % Inhibition of GR Induction (8 µM, LUC (luciferase)): −25%
O=c1cc(-c2ccc(O)cc2)oc2ccccc12 [4′-hydroxyflavone] | 49% | -43% | 49% | -49% | –
O=c1cc(-c2ccc(O)c(O)c2)oc2cccc(O)c12 [5,3′,4′-trihydroxyflavone] | – | – | – | – | inhibition at 4 µM [5]: 27%; inhibition at 4 µM [6]: -16%; inhibition at 8 µM [7]: 40%; inhibition at 8 µM [8]: -24%
O=C1CC(c2ccc(O)c(O)c2)Oc2cc(O)cc(O)c21 (centres unmarked) [5,7,3′,4′-tetrahydroxyflavanone] | – | – | – | – | inhibition at 4 µM [5]: 4%; inhibition at 4 µM [6]: 5%; inhibition at 8 µM [7]: -4%; inhibition at 8 µM [8]: 18%
COc1ccc([C@@H]2CC(=O)c3c(O)cc(O)cc3O2)cc1O [5,7,3′-triOH, 4′methoxyflavanone] | 1% | – | 51% | 15% | –
O=c1cc(-c2ccc(O)c(O)c2)oc2ccccc12 [3′,4′-dihydroxyflavone] | -15% | -2% | 38% | -6% | –

Continued, in another order:

inhibition at 4 µM [1] | inhibition at 4 µM [2] | inhibition at 8 µM [3] | inhibition at 8 µM [4] | Compound | other results
21% | -117% | 36% | -87% | O=c1cc(-c2ccc(O)c(O)c2)oc2cc(O)ccc12 [7,3′,4′-trihydroxyflavone] | –
26% | -44% | 39% | -82% | O=c1cc(-c2ccc(O)cc2)oc2ccc(O)cc12 [6,4′-dihydroxyflavone] | –
8% | 15% | 7% | 19% | O=C1CC(c2ccc(O)cc2)Oc2cc(O)cc(O)c21 (centres unmarked) [5,7,4′-trihydroxyflavanone] | –
22% | -7% | – | – | O=c1c(-c2ccc(O)cc2)coc2cc(O)cc(O)c12 [5,7,4′-trihydroxyisoflavone] | –
33% | -8% | 55% | -3% | O=c1cc(-c2ccc(O)c(O)c2)oc2cc(O)cc(O)c12 [5,7,3′,4′-tetrahydroxyflavone] | –
13% | 4% | 34% | -24% | O=c1cc(-c2ccccc2)oc2ccccc12 [flavone] | –
– | – | 5% | -52% | O=c1c(-c2ccc(O)cc2)coc2cc(O)ccc12 [7,4′-dihydroxyisoflavone] | –
22% | 0% | 38% | -6% | O=c1cc(-c2ccccc2)oc2cc(O)cc(O)c12 [5,7-dihydroxyflavone] | –
